Laboratory results taken from patent US6262073A, “Pharmaceutical methods of use of 5-substituted and 5,5 disubstituted-3,4-dihydroxy-2(5H)-furanones” (Oxis International Inc., priority 2000, dated 2001).

These compounds were tested against T1, Cyclooxygenase-1 (cyclooxygenase from ram seminal vesicles) (Ovis aries, UniProt P05979) (assay: Cyclooxygenase-1 screen (COX-1)). Conditions: 300 μM.
T1 construct: cyclooxygenase from ram seminal vesicles; from tissue; host or cells: ram seminal vesicles
T1 sequence (P05979 25-600): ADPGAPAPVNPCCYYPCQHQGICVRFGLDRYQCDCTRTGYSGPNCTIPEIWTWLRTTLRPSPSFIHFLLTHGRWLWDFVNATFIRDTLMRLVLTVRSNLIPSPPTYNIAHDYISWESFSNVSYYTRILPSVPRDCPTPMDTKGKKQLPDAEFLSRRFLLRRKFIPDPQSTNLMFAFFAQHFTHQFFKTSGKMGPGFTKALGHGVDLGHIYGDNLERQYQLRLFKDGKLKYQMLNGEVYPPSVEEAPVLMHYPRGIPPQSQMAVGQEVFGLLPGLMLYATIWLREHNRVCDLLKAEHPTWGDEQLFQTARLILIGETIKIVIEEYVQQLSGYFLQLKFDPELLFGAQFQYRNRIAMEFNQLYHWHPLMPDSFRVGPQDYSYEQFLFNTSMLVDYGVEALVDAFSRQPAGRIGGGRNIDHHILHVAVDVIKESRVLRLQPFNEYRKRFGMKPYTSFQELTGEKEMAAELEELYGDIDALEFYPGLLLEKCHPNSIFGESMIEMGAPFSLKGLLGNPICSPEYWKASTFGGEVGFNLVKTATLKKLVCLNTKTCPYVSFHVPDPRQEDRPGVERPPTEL
Assay type: biochemical
Description: (§1) The compounds of the invention were screened for their anti-inflammatory activity using a series of in vitro tests the details of which are given below. The activity of various compounds against 5-lipoxygenase, cycloxygenase-1, cycloxygenase-2 and lipid peroxidase was evaluated. Results of the screening procedures are included in TABLE I, and the activity against 5-lipoxygenase at a test concentration of 1 μM in Table II.
Cyclooxygenase-1 is involved in the formation of prostaglandins and thromboxane via the oxidative metabolism of arachidonic acid. Briefly, cyclooxygenase from ram seminal vesicles is incubated with arachidonic acid (100 μm) for 2 minutes at 37° C. in the presence or absence of test compounds according to the methods of A. T. Evans et al., Biochem. Pharm. 36:2035-2037(1987) and R. Boopathy et al., Biochem J. 239:371-377 (1968). The assay is terminated by the addition of trichioroacetic acid and cyclooxygenase activity is determined by reading the absorbance at 530 nm. […]

Compound	COX-1 percent inhibition [%]
O=C1OC(CCC#Cc2ccc3ccccc3c2)C(O)=C1O (stereo not drawn) [Example 32, 3,4-Dihydroxy-5-[4-(2-naphthyl)-3-butynyl]-2(5H)-furanone]	34
O=C1OC(c2ccccc2)(c2ccc(-c3ccccc3)cc2)C(O)=C1O (stereo not drawn) [Example 7, 5-[(1,1'-Biphenyl)-4-yl]-3,4-dihydroxy-5-phenyl-2(5H)-furanone]	52
CC(C)Cc1ccc([C@]2(C)OC(=O)C(O)=C2O)cc1 [Example 14, (S)-(+)-3,4-Dihydroxy-5-methyl-5-[4-(2-methylpropyl)phenyl]-2(5H)-furanone]	12
CCCC1(c2ccc(-c3ccccc3)cc2)OC(=O)C(O)=C1O (stereo not drawn) [Example 5, 5-[(1,1'-Biphenyl)-4-yl]-3,4-dihydroxy-5-propyl-2(5H)-furanone]	13
O=C1OC(c2ccccc2)(c2ccccc2)C(O)=C1O [Example 8, 3,4-Dihydroxy-5,5-diphenyl-2(5H)-furanone]	15

The compounds below were run against T2, Cyclooxygenase-2 (prostaglandin H synthetase-2) from sheep placenta (Ovis aries, UniProt P79208) (assay: Cyclooxygenase-2 screen (COX-2)). Conditions: read-out: COX-2 percent inhibition.
T2 construct: cyclooxygenase-2 from sheep placenta; from tissue; host or cells: sheep placenta
T2 sequence (P79208 17-603): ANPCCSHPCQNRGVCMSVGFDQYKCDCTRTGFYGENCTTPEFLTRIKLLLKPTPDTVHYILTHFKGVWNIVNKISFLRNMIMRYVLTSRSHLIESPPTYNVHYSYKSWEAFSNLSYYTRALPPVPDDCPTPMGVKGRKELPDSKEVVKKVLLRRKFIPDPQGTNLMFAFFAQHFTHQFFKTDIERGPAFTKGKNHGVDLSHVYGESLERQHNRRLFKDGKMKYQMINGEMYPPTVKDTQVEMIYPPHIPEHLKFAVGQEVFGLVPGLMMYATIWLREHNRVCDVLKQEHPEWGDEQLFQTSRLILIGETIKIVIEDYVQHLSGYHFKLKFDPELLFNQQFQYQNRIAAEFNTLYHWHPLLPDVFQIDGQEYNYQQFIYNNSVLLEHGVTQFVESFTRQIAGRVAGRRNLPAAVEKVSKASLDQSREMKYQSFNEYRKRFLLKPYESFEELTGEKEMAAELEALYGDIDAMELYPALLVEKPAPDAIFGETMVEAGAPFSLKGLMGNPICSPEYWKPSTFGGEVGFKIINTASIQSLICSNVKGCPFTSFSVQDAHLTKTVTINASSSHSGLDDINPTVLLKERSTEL
Assay type: biochemical
Description: as §1
Cyclooxygenase-2, also known as prostaglandin H synthetase-2, catalyzes the rate- limiting step in the synthesis of inflammatory prostaglandins. In this reaction cyclooxygenase-2 catalyzes the oxygenation of unesterified precursors to form cyclic endoperoxide derivatives, including prostaglandin H. Briefly, cyclooxygenase-2 from sheep placenta, 14 μg/assay tube, is incubated with arachidonic acid (500 μM) for 1.5 minutes at 27° C. in the absence or presence of test compounds according to the methods of A. T. Evans, et al., Biochem Pharm. […] Res. Comm. […] Compounds are screened at 300 μM.

Compound	inhibition at 300 µM [%]
O=C1OC(CCC#Cc2ccc3ccccc3c2)C(O)=C1O (stereo not drawn) [Example 32, 3,4-Dihydroxy-5-[4-(2-naphthyl)-3-butynyl]-2(5H)-furanone]	23
O=C1OC(c2ccccc2)(c2ccc(-c3ccccc3)cc2)C(O)=C1O (stereo not drawn) [Example 7, 5-[(1,1'-Biphenyl)-4-yl]-3,4-dihydroxy-5-phenyl-2(5H)-furanone]	34
CC(C)Cc1ccc([C@]2(C)OC(=O)C(O)=C2O)cc1 [Example 14, (S)-(+)-3,4-Dihydroxy-5-methyl-5-[4-(2-methylpropyl)phenyl]-2(5H)-furanone]	18
CCCC1(c2ccc(-c3ccccc3)cc2)OC(=O)C(O)=C1O (stereo not drawn) [Example 5, 5-[(1,1'-Biphenyl)-4-yl]-3,4-dihydroxy-5-propyl-2(5H)-furanone]	22
O=C1OC(c2ccccc2)(c2ccccc2)C(O)=C1O [Example 8, 3,4-Dihydroxy-5,5-diphenyl-2(5H)-furanone]	17

What follows are compounds tested against T3, 5-Lipoxygenase (crude enzyme preparation from rat basophilic leukemia cells, RBL-1) (Rattus norvegicus, UniProt P12527) (assay: 5-Lipoxygenase screen (5-LO), 5-HETE by RIA). Conditions: 30 μM; read-out: 5-LO percent inhibition.
T3 construct: crude enzyme preparation from rat basophilic leukemia cells (RBL-1); endogenous in cells; host or cells: rat basophilic leukemia cells (RBL-1)
T3 sequence (P12527 1-673): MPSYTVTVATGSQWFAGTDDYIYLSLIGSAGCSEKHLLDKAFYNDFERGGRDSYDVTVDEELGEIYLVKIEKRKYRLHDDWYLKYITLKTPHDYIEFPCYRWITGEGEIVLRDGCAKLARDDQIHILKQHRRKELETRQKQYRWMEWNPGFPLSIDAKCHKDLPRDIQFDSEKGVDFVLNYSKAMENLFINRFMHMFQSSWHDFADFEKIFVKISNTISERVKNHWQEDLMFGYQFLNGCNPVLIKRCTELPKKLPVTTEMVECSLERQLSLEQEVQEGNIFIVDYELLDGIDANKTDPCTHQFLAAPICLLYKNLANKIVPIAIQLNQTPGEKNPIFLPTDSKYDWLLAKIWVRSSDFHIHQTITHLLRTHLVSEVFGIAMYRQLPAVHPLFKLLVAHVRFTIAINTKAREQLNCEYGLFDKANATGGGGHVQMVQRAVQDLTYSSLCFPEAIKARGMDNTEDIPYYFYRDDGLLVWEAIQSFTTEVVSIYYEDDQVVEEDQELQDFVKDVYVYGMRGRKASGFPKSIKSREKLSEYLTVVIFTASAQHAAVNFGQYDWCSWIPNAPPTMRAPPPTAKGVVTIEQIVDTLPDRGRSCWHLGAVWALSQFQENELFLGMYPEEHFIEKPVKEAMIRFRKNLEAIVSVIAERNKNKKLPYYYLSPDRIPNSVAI
Assay type: biochemical
Description: as §1
5-Lipoxygenase catalyzes the oxidative metabolism of arachidonic acid to […] (5-HETE), the initial reaction leading to the formation of the leukotrienes. Briefly, the testing procedure utilizes a crude enzyme preparation from rat basophilic leukemia cells (RBL-1) according to the methods of T. Shimuzu et al. Pro. […] Test compounds are pre-incubated with the enzyme preparation for 5 minutes at room temperature and the reaction is initiated by the addition of arachidonic acid. Following an 8 minute incubation at room temperature, the reaction is terminated by the addition of citric acid and concentrations of 5-HETE are determined by RIA. Compounds are screened at 30 μM.

Compound	inhibition at 30 µM [%]
O=C1OC(CCC#Cc2ccc3ccccc3c2)C(O)=C1O (stereo not drawn) [Example 32, 3,4-Dihydroxy-5-[4-(2-naphthyl)-3-butynyl]-2(5H)-furanone]	98
O=C1OC(c2ccccc2)(c2ccc(-c3ccccc3)cc2)C(O)=C1O (stereo not drawn) [Example 7, 5-[(1,1'-Biphenyl)-4-yl]-3,4-dihydroxy-5-phenyl-2(5H)-furanone]	102
CC(C)Cc1ccc([C@]2(C)OC(=O)C(O)=C2O)cc1 [Example 14, (S)-(+)-3,4-Dihydroxy-5-methyl-5-[4-(2-methylpropyl)phenyl]-2(5H)-furanone]	96
CCCC1(c2ccc(-c3ccccc3)cc2)OC(=O)C(O)=C1O (stereo not drawn) [Example 5, 5-[(1,1'-Biphenyl)-4-yl]-3,4-dihydroxy-5-propyl-2(5H)-furanone]	99
O=C1OC(c2ccccc2)(c2ccccc2)C(O)=C1O [Example 8, 3,4-Dihydroxy-5,5-diphenyl-2(5H)-furanone]	94

Same assay, conditions: read-out: Percent inhibition of 5-LO; test conc. 1 μM (Table II)

Compound	inhibition at 1 µM [%]
O=C1OC(CCC#Cc2ccc3ccccc3c2)C(O)=C1O (stereo not drawn) [Example 32, 3,4-Dihydroxy-5-[4-(2-naphthyl)-3-butynyl]-2(5H)-furanone]	66
O=C1OC(c2ccccc2)(c2ccc(-c3ccccc3)cc2)C(O)=C1O (stereo not drawn) [Example 7, 5-[(1,1'-Biphenyl)-4-yl]-3,4-dihydroxy-5-phenyl-2(5H)-furanone]	61
CC(C)Cc1ccc([C@]2(C)OC(=O)C(O)=C2O)cc1 [Example 14, (S)-(+)-3,4-Dihydroxy-5-methyl-5-[4-(2-methylpropyl)phenyl]-2(5H)-furanone]	50
CCCC1(c2ccc(-c3ccccc3)cc2)OC(=O)C(O)=C1O (stereo not drawn) [Example 5, 5-[(1,1'-Biphenyl)-4-yl]-3,4-dihydroxy-5-propyl-2(5H)-furanone]	68
O=C1OC(c2ccccc2)(c2ccccc2)C(O)=C1O [Example 8, 3,4-Dihydroxy-5,5-diphenyl-2(5H)-furanone]	15

The compounds below were run on Lipid peroxidation (rat liver microsomes) (assay: Lipid peroxidation screen (LPO), CCl4-induced, liver microsomes). Conditions: 300 μM.
Assay type: biochemical
Description: as §1
Lipid peroxidation is a consequence of various stimuli, including reactive free radicals. Polyunsaturated fatty acids associated with plasma membranes are degraded due to enzymatic induction by reactive agents such as CCl4, leading to cellular damage. Briefly, microsomes are prepared from rat livers and the protein concentration is determined according to the method of D. Mansuy et al., Biochem. Biophys. Res. Comm. 135:1015-1021(1986). A reaction mixture consisting of 2 mg of the microsomal preparation, an NADPH generating system, 20 mM CCl4 and test compound are incubated for 12 minutes at 37° C. The reaction is terminated by the addition of a mixture of thiobarbituric acid and trichloroacetic acid. The absorbance is read at 535 nm and is proportional to the concentration of malondialdehyde. Compounds are screened at 300 μM.

Compound	LPO percent inhibition [%]
O=C1OC(CCC#Cc2ccc3ccccc3c2)C(O)=C1O (stereo not drawn) [Example 32, 3,4-Dihydroxy-5-[4-(2-naphthyl)-3-butynyl]-2(5H)-furanone]	75
O=C1OC(c2ccccc2)(c2ccc(-c3ccccc3)cc2)C(O)=C1O (stereo not drawn) [Example 7, 5-[(1,1'-Biphenyl)-4-yl]-3,4-dihydroxy-5-phenyl-2(5H)-furanone]	73
CC(C)Cc1ccc([C@]2(C)OC(=O)C(O)=C2O)cc1 [Example 14, (S)-(+)-3,4-Dihydroxy-5-methyl-5-[4-(2-methylpropyl)phenyl]-2(5H)-furanone]	66
CCCC1(c2ccc(-c3ccccc3)cc2)OC(=O)C(O)=C1O (stereo not drawn) [Example 5, 5-[(1,1'-Biphenyl)-4-yl]-3,4-dihydroxy-5-propyl-2(5H)-furanone]	70
O=C1OC(c2ccccc2)(c2ccccc2)C(O)=C1O [Example 8, 3,4-Dihydroxy-5,5-diphenyl-2(5H)-furanone]	70

What follows are compounds tested on NF-κB (assay: NF-κB nuclear membrane translocation, EMSA, LPS-treated NR8383 cells). Conditions: Rattus norvegicus; 30 nM; LPS 1 μg/ml; NR8383 cells; 6 hours.
Assay type: cell-based
Description: Experiments measuring test agents effect on NF-κB nuclear membrane translocation were performed with NR8383 cells, which are transformed rat alveolar macrophages. […] In addition, some compounds were tested at doses of 10 and 30 μM. Untreated control cells and cells treated with LPS alone were tested in each experiment. Cells were harvested 6 hours after treatment. Nuclear proteins were extracted, frozen and quantified using the Bradford assay. Electrophoretic mobility shift assays (EMSA) were subsequently analyzed using a radiolabeled NF-κB probe. Nuclear proteins were reacted with the radiolabeled probe, run on a 5% polyacrylamide gel, and subjected to autoradiography. Specificity of protein binding for the NF-κB binding site was assayed by cold and nonspecific competition using the LPS treated sample in each experiment. All EMSA were duplicated at least once to verify results. Laser densitometry of NF-κB bands was done on autoradiographs to quantify NF-κB binding activity.

Compound	inhibition at 0.03 µM [%]
O=C1OC(CCC#Cc2ccc3ccccc3c2)C(O)=C1O (stereo not drawn) [Example 32, 3,4-Dihydroxy-5-[4-(2-naphthyl)-3-butynyl]-2(5H)-furanone]	90

The compounds below were run on Nuclear Factor-kappa B (NF-κB) (assay: NF-κB lacZ (κB-Z) reporter assay in transfected Jurkat cells stimulated with A23187 and PMA). Conditions: Homo sapiens; 10 μM; κB-Z Jurkat cells, A23187 and PMA (Table III); read-out: NF-κB percent inhibition.
Assay type: cell-based, human
Description: The human T lymphoid cell line Jurkat was transfected with a response element lacZ reporter in which transcription of the β-galactosidase gene is directed by the binding site for the NF-κB transcription factor. […] At the end of the incubation, the cells are spun down and resuspended in the buffer and FDG (fluorescein di-β-D-galactopyranoside) solution. The covered plates are further incubated in the dark for 16 hours at 25° C. […] Compounds were screened at 10 μM.

Compound	inhibition at 10 µM [%]
O=C1OC(c2ccccc2)(c2ccc(-c3ccccc3)cc2)C(O)=C1O (stereo not drawn) [Example 7, 5-[(1,1'-Biphenyl)-4-yl]-3,4-dihydroxy-5-phenyl-2(5H)-furanone]	21
CC(C)Cc1ccc([C@]2(C)OC(=O)C(O)=C2O)cc1 [Example 14, (S)-(+)-3,4-Dihydroxy-5-methyl-5-[4-(2-methylpropyl)phenyl]-2(5H)-furanone]	60
CCCC1(c2ccc(-c3ccccc3)cc2)OC(=O)C(O)=C1O (stereo not drawn) [Example 5, 5-[(1,1'-Biphenyl)-4-yl]-3,4-dihydroxy-5-propyl-2(5H)-furanone]	68
O=C1OC(c2ccccc2)(c2ccccc2)C(O)=C1O [Example 8, 3,4-Dihydroxy-5,5-diphenyl-2(5H)-furanone]	33
